Laboratory results reported in ChEMBL document CHEMBL2046434, “Morita-Baylis-Hillman adducts: biological activities and potentialities to the discovery of new cheaper drugs” (Bioorg Med Chem, 2012).
Each block holds one molecule with its values, some of them ahead of it.

Columns and labels:
Trypanosoma cruzi [1] = test: Antitrypanosomal activity against Trypanosoma cruzi epimastigotes; assay type: functional, organism-based
Trypanosoma cruzi [2] = test: Antitrypanosomal activity against Trypanosoma cruzi trypomastigotes; assay type: functional, organism-based
Aspergillus niger = test: Antimicrobial activity against Aspergillus niger; assay type: functional
Candida albicans = test: Antimicrobial activity against Candida albicans; assay type: functional
Leishmania amazonensis = test: Antileishmanial activity against Leishmania amazonensis promastigotes; assay type: functional, organism-based
HeLa = test: Growth inhibition of human HeLa cells at 5 uM; assay type: functional; details: read-out: GI

IC50 (Trypanosoma cruzi [1]): 28.5 µM
IC50 (Trypanosoma cruzi [2]): 25.5 µM
Compound: C=C(C#N)C(O)c1ccc([N+](=O)[O-])cc1 (stereo unspecified)
zone of inhibition (Aspergillus niger): 12 mm
zone of inhibition (Candida albicans): 12 mm

IC50 (Leishmania amazonensis): 50.1 µM
Compound: C=C(C(=O)OC)C(O)c1ccccc1[N+](=O)[O-] (stereo unspecified)
zone of inhibition (Aspergillus niger): 11 mm
zone of inhibition (Candida albicans): 12 mm

Compound: Cc1ccc(S(=O)(=O)NC(/C(=C/c2ccco2)[N+](=O)[O-])c2ccccc2)cc1 (stereo unspecified)
inhibition of growth at 5 µM (HeLa): 44%

Compound: Cc1ccc(S(=O)(=O)NC(/C(=C/c2ccco2)[N+](=O)[O-])c2ccco2)cc1 (stereo unspecified)
inhibition of growth at 5 µM (HeLa): 32%

Compound: Cc1ccc(S(=O)(=O)NC(/C(=C/c2ccoc2)[N+](=O)[O-])c2ccccc2)cc1 (stereo unspecified)
inhibition of growth at 5 µM (HeLa): 28%

Compound: Cc1ccc(S(=O)(=O)NC(/C(=C/c2ccoc2)[N+](=O)[O-])c2ccco2)cc1 (stereo unspecified)
inhibition of growth at 5 µM (HeLa): 33%

Compound: Cc1ccc(S(=O)(=O)NC(/C(=C/c2cccs2)[N+](=O)[O-])c2ccccc2)cc1 (stereo unspecified)
inhibition of growth at 5 µM (HeLa): 49%

Compound: Cc1ccc(S(=O)(=O)NC(/C(=C/c2cccs2)[N+](=O)[O-])c2ccco2)cc1 (stereo unspecified)
inhibition of growth at 5 µM (HeLa): 28%

Compound: Cc1ccc(S(=O)(=O)NC(/C(=C/c2ccsc2)[N+](=O)[O-])c2ccccc2)cc1 (stereo unspecified)
inhibition of growth at 5 µM (HeLa): 45%

Compound: COc1ccc(/C=C(/C(NS(=O)(=O)c2ccc(C)cc2)c2ccccc2)[N+](=O)[O-])cc1 (stereo unspecified)
inhibition of growth at 5 µM (HeLa): 23%

Compound: COc1ccc(/C=C(/C(NS(=O)(=O)c2ccc(C)cc2)c2ccccc2)[N+](=O)[O-])cc1OC (stereo unspecified)
inhibition of growth at 5 µM (HeLa): 35%

Compound: Cc1ccc(S(=O)(=O)NC(/C(=C/c2ccc3c(c2)OCO3)[N+](=O)[O-])c2ccccc2)cc1 (stereo unspecified)
inhibition of growth at 5 µM (HeLa): 29%

Compound: CC(=O)CC/C(=C/c1ccc(Cl)cc1)[N+](=O)[O-]
inhibition of growth at 5 µM (HeLa): > 70%

Compound: COc1ccc(/C=C(/CCC(C)=O)[N+](=O)[O-])cc1
inhibition of growth at 5 µM (HeLa): > 70%

Compound: CC(=O)CC/C(=C/c1ccccc1)[N+](=O)[O-]
inhibition of growth at 5 µM (HeLa): > 70%

IC50 (Leishmania amazonensis): 452 µM
Compound: C=C(C(=O)OC)C(O)c1cccc([N+](=O)[O-])c1 (stereo unspecified)

Compound: C=C(C(=O)OCC)C(O)c1ccc(Cl)cc1 (stereo unspecified)
zone of inhibition (Aspergillus niger): 11 mm
zone of inhibition (Candida albicans): 12 mm

Compound: C=C(C#N)C(O)c1ccc(Cl)cc1 (stereo unspecified)
zone of inhibition (Aspergillus niger): 12 mm
zone of inhibition (Candida albicans): 13 mm

Compound: C=C(C(=O)OCC)C(O)c1ccccc1OC (stereo unspecified)
zone of inhibition (Candida albicans): 12 mm

Compound: C=C(C#N)C(O)c1ccc(F)cc1 (stereo unspecified)
zone of inhibition (Aspergillus niger): 11 mm
zone of inhibition (Candida albicans): 13 mm

Compound: C=C(C(=O)OCC)C(O)c1ccc(F)cc1 (stereo unspecified)
zone of inhibition (Aspergillus niger): 14 mm
zone of inhibition (Candida albicans): 15 mm

Compound: C=C(C#N)C(O)c1ccccc1Cl (stereo unspecified)
zone of inhibition (Aspergillus niger): 14 mm
zone of inhibition (Candida albicans): 13 mm

Compound: C=C(C(=O)OCC)C(O)c1ccccc1Cl (stereo unspecified)
zone of inhibition (Aspergillus niger): 14 mm
zone of inhibition (Candida albicans): 13 mm

Compound: C=C(C#N)C(O)c1ccc(Cl)cc1Cl (stereo unspecified)
zone of inhibition (Aspergillus niger): 13 mm
zone of inhibition (Candida albicans): 11 mm

Compound: C=C(C(=O)OCC)C(O)c1ccc(Cl)cc1Cl (stereo unspecified)
zone of inhibition (Aspergillus niger): 11 mm
zone of inhibition (Candida albicans): 15 mm

Compound: C=C(C(=O)OCC)C(O)c1cccc([N+](=O)[O-])c1 (stereo unspecified)
zone of inhibition (Aspergillus niger): 13 mm
zone of inhibition (Candida albicans): 14 mm

Compound: C=C(C(=O)OCC)C(O)c1ccc([N+](=O)[O-])cc1 (stereo unspecified)
zone of inhibition (Aspergillus niger): 12 mm
zone of inhibition (Candida albicans): 11 mm

Compound: C=C(C(=O)CC)C(O)c1ccc(Cl)cc1 (stereo unspecified)
zone of inhibition (Aspergillus niger): 13 mm
zone of inhibition (Candida albicans): 12 mm

Compound: C=C(C#N)C(O)c1ccccc1OC (stereo unspecified)
zone of inhibition (Aspergillus niger): 12 mm

IC50 (Leishmania amazonensis): 196 µM
Compound: C=C(C(=O)OC)C(O)c1ccc([N+](=O)[O-])cc1 (stereo unspecified)
zone of inhibition (Candida albicans): 13 mm

Compound: C=C(C#N)C(O)c1cccc([N+](=O)[O-])c1 (stereo unspecified)
zone of inhibition (Aspergillus niger): 14 mm
zone of inhibition (Candida albicans): 10 mm

Compound: C=C(C#N)C(O)c1ccccc1[N+](=O)[O-] (stereo unspecified)
zone of inhibition (Aspergillus niger): 11 mm
zone of inhibition (Candida albicans): 13 mm
